The results in this text go back to patent US7022699B2, “Cyclohexenyl phenyl diazepines vasopressin and oxytocin receptor modulators” (Wyeth, priority 2001, dated 2006).

Each structure is given as a SMILES string.

For the first assay, the target named is T1, human vasopressin V2 receptor subtype (Homo sapiens, UniProt P30518).
T1 construct: host or cells: CHO cells, stably transfected (pZeoSV vector); membranes
T1 sequence (P30518 whole entry): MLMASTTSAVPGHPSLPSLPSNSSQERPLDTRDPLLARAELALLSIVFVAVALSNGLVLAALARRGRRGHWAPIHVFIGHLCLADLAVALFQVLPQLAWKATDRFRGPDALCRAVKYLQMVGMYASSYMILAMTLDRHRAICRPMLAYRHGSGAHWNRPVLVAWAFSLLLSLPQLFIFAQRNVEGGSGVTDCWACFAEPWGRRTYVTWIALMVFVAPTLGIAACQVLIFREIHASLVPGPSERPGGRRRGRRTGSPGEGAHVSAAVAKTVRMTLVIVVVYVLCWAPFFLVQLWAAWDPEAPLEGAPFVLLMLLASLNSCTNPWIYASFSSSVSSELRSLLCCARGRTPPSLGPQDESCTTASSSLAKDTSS
The assay can be described thus: Vasopressin binding in CHO cell membranes expressing human vasopressin V2 subtype receptors ([3H]arginine vasopressin). To be noted: 100 nM, values without parentheses. An excerpt: Vasopressin Binding in Chinese Hamster Ovary Cell Membranes Expressing Human Vasopressin V2 Subtype Receptors
Chinese Hamster Ovary (CHO) cells stably transfected with the human V2 subtype receptors were obtained from M. Thibonnier, Case Western Reserve University School of Medicine, Cleveland, Ohio.
A. Passaging and Amplification of Cells:
CHO cells transfected with the human vasopressin V2 subtype receptors obtained from M. Thibonnier (pZeoSV vector) are allowed to grow to confluency (approx. >90%) in T-150 flasks under sterile conditions, in a cell culture medium of F-12 Nutrient Mixture (HAM) with L-glutamine (Gibco Cat. #11765-054) containing 15 mM HEPES (Gibco Cat. #15630-080), 1% antibiotic/antimycotic (add 5 mL 100×, Gibco Cat. #15240-062 per 500 mL F-12), 250 μg/mL Zeocin (add 1.25 mL of 100 mg/mL Invitrogen R-250-01 per 500 mL F-12) and 10% Fetal Bovine Serum (Qualified, heat inactivated, Gibco Cat. #16140-063). The medium is removed by aspiration and the cells washed with 10 mL of Hank's Balanced Salt solution (Gibco Cat. #14175-095). The salt solution is removed by aspiration and the cells trypsinized with 5 mL of trypsin-EDTA (0.05% trypsin, 0.53 mM EDTA-4Na, Gibco Cat. #25300-070) for 1 min. The trypsin is removed by aspiration and the cells dislodged by tapping. Cell Culture medium (e.g. 30 mL for 1:30 split) is immediately added and mixed well to inactivate trypsin. 1 mL of detached cells is added to new culture flasks containing fresh Cell Culture medium (e.g. into 25 mL per T-150 flask), and mixed gently. The cells are incubated at 37° C. in 5% CO2. The medium is changed at 3 to 4 day interval (or as appropriate). The cells grow to confluency (approx. >75%–95%) within 7–8 days. All steps are done under sterile conditions. B. Membrane Preparation: The cells are washed twice gently with Hank's Balanced Salt solution (e.g. use 10 mL per T-150 flask). The excess solution is removed and the cells bathed for 15–30 min. in an enzyme-free Cell Dissociation Buffer (e.g. use 8 mL Hank's Based, Gibco Cat. # 13150-016 per T-150 flask) until cells are loosened. The contents are transferred to centrifuge tubes (50 mL size) kept in ice bath. All subsequent steps are done at 4° C. The tubes are centrifuged at 300×g for 15 min (1380 rpm on SORVAL, Model RT6000D, using rotor for 50 mL tubes). The supernatant is discarded and the cells suspended in homogeneizing buffer (10 mM Tris-HCl containing 0.25 M sucrose and 1 mM EDTA, pH 7.4) ensuring that the volume of the buffer is about ten times the volume of the cell pellet. The cells are pooled into a centrifuge tube (50 mL) and homogenized with Polytron at setting 6 for 10 sec. The homogenate is transferred into a Potter-Elvjehm homogeneizer and homogenized with 3 strokes. The homogenate is centrifuged at 1500×g for 60 min at 4° C. (3100 rpm using SORVAL, model RT6000D, using rotor for 50 mL tubes). The pellet is discarded. The supernatant is centrifuged at 100,000×g for 60 min. at 4° C. (Beckman L8-80M ultracentrifuge; spin at 37,500 rpm with rotor type 70 Ti for 50 mL tubes; 38,000 rpm with type 80Ti for 15 mL tubes; or 35,800 rpm with rotor type 45Ti). The supernantant is discarded and the pellet suspended in 3 to 4 mL of Tris buffer (50 mM TRIS-HCl, pH 7.4). The protein content is estimated by the Bradford or Lowry method. The volume of the membrane suspension is adjusted with the membrane buffer (50 mM Tris-HCl containing 0.1% BSA and 0.1 mM PMSF) to give 3.0 mg/mL (or as appropriate) of protein. The membranes are aliquoted and stored at −70° C. C. Radioligand Binding Assay:
In wells of a 96-well format microtiter plate, is added 90, 110 or 130 μL (to make up a final volume of 200 μL) of assay buffer containing 50 mM of Tris-HCl (pH 7.4), […], 1 mg % aprotinin, 1 mg % leupeptin, 2 mg % 1,10-phenanthroline, 10 mg % trypsin inhibitor, and 0.1 mM PMSF. The inhibitors are added on the day of the experiment. […]
By inhibition is commonly meant the drop in the measured response relative to a control, in per cent. Consider `CC1=C(c2ccc(C(=O)N3Cc4cccn4Cc4ccccc43)cc2C)CCCC1O` (racemic) [Example 5, (10,11-Dihydro-5H-pyrrolo[2,1-c][1,4]benzodiazepin-10-yl)-[4-(3-hydroxy-2-methyl-cyclohex-1-en-1-yl)-3-methyl-phenyl]-methanone], for which the inhibition at 0.1 µM was determined as 2%.

Consider `CC1=C(c2ccc(C(=O)N3Cc4cccn4Cc4ccccc43)cc2C)CCC[C@H]1O` (single isomer, unassigned) [Example 41], for which the inhibition at 0.1 µM came to 40%.

For the compound `CC1=C(c2ccc(C(=O)N3Cc4cccn4Cc4ccccc43)cc2C)CCC[C@@H]1O` (single isomer, unassigned) [Example 43], the inhibition at 0.1 µM came out at 45%.

For `Cc1cc(C(=O)N2Cc3cccn3Cc3ccccc32)ccc1C1=CCCCC1` [Example 2, (10,11-Dihydro-5H-pyrrolo[2,1-c][1,4]benzodiazepin-10-yl)-(4-cyclohex-1-en-1-yl-3-methyl-phenyl)-methanone], the inhibition at 0.1 µM came out at 42%.

As for `CC1=C(c2ccc(C(=O)N3Cc4cccn4Cc4ccccc43)cc2C)CCCC1=O` [Example 4, 3-[2-Methyl-4-(5H-pyrrolo[2,1-c][1,4]benzodiazepin-10(11H)-yl-carbonyl)phenyl]-2-methyl-cyclohex-2-en-1-one], the inhibition at 0.1 µM stood at 74%.

Take `CC1=C(c2ccc(C(=O)N3Cc4cccn4Cc4ccccc43)cc2C)CCC[C@H]1O` [Example 6, (10,11-Dihydro-5H-pyrrolo[2,1-c][1,4]benzodiazepin-10-yl)-[4-((3R)-3-hydroxy-2-methyl-cyclohex-1-en-1-yl)-3-methyl-phenyl]-methanone]: the inhibition at 0.1 µM worked out at 49%.

For the compound `COc1cc(C2=CCCc3ccccc32)c(Cl)cc1C(=O)N1Cc2cccn2Cc2ccccc21` [Example 8, 10-[5-Chloro-4-(3,4-dihydro-naphthalen-1-yl)-2-methoxybenzoyl]-10,11-dihydro-5H-pyrrolo[2,1-c][1,4]benzodiazepine], the inhibition at 0.1 µM worked out at 77%.

Regarding `COc1cc(C2=C(C)C(=O)CCC2)c(Cl)cc1C(=O)N1Cc2cccn2Cc2ccccc21` [Example 9, 3-[2-Chloro-5-methoxy-4-(5H-pyrrolo[2,1-c][1,4]benzodiazepin-10(11H)-yl-carbonyl)phenyl]-2-methyl-cyclohex-2-en-1-one], the inhibition at 0.1 µM is 69%.

Regarding `O=C(c1ccc(C2=CCCCC2)cc1Cl)N1Cc2cccn2Cc2ccccc21` [Example 10, (10,11-dihydro-5H-pyrrolo[2,1-c][1,4]benzodiazepin-10-yl)-[2-chloro-4-(cyclohex-1-en1-yl)-phenyl]-methanone], the inhibition at 0.1 µM amounted to 65%.

With `O=C(c1ccc(C2=CCCc3ccccc32)cc1Cl)N1Cc2cccn2Cc2ccccc21` [Example 11, (10,11-Dihydro-5H-pyrrolo[2,1-c][1,4]benzodiazepin-10-yl)-[2-chloro-4-(3,4-dihydro-naphthalen-1-yl)-phenyl]-methanone], the inhibition at 0.1 µM is 90%.

As to `CC1(C)CCCC=C1c1ccc(C(=O)N2Cc3cccn3Cc3ccccc32)c(Cl)c1` [Example 12, (10,11-Dihydro-5H-pyrrolo[2,1-c][1,4]benzodiazepin-10-yl)-[2-chloro-4-(6,6-dimethyl-cyclohex-1-en-1-yl)-phenyl]-methanone], the inhibition at 0.1 µM amounted to 82%.

As to `CC1=C(c2ccc(C(=O)N3Cc4cccn4Cc4ccccc43)c(Cl)c2)CCCC1=O` [Example 13, (10,11-Dihydro-5H-pyrrolo[2,1-c][1,4]benzodiazepin-10-yl)-[2-chloro-4-(2-methyl-3-oxo-cyclohex-1-en-1-yl)-phenyl]-methanone], the inhibition at 0.1 µM came to 55%.

For the compound `CC1=C(c2ccc(C(=O)N3Cc4cccn4Cc4ccccc43)c(Cl)c2)CCCC1O` (stereo not drawn) [Example 14, (10,11-Dihydro-5H-pyrrolo[2,1-c][1,4]benzodiazepin-10-yl)-[2-chloro-4-(3-hydroxy-2-methyl-cyclohex-1-en-1-yl)-phenyl]-methanone], the inhibition at 0.1 µM turned out to be 38%.

Take `CC1(C)CCCC=C1c1ccc(C(=O)N2Cc3cccn3Cc3ccccc32)cc1` [Example 17, (10,11-Dihydro-5H-pyrrolo[2,1-c][1,4]benzodiazepin-10-yl)-[4-(6,6-dimethyl-cyclohex-1-en-1-yl)-phenyl]-methanone]: the inhibition at 0.1 µM was determined as 43%.

Regarding `O=C(c1ccc(C2=CCCc3ccccc32)cc1)N1Cc2cccn2Cc2ccccc21` [Example 18, (10,11-Dihydro-5H-pyrrolo[2,1-c][1,4]benzodiazepin-10-yl)-[4-(3,4-dihydro-naphthalen-1-yl)-phenyl]-methanone], the inhibition at 0.1 µM amounted to 61%.

With `CC1=C(c2ccc(C(=O)N3Cc4cccn4Cc4ccccc43)cc2)C(C)CCC1` (stereo not drawn) [Example 19, (10,11-Dihydro-5H-pyrrolo[2,1-c][1,4]benzodiazepin-10-yl)-[4-(2,6-dimethyl-cyclohex-1-en-1-yl)-phenyl]-methanone], the inhibition at 0.1 µM amounted to 5%.

`CC(C)(C)C1CCCC=C1c1ccc(C(=O)N2Cc3cccn3Cc3ccccc32)cc1` (stereo not drawn) [Example 20, (10,11-5H-Dihydro-pyrrolo[2,1-c][1,4]benzodiazepin-10-yl)-[4-(6-tert-butyl-cyclohex-1-en-1-yl)-phenyl]-methanone]: the “V2 % inhibition @ 100 nM” value is reported as 10%.

Consider `O=C(c1ccc(C2=CCC3CCC2C3)cc1)N1Cc2cccn2Cc2ccccc21` (stereo not drawn) [Example 21], for which the “V2 % inhibition @ 100 nM” value is 5%.

As for `CC1(C)C2CC=C(c3ccc(C(=O)N4Cc5cccn5Cc5ccccc54)cc3)C1C2` (stereo not drawn) [Example 22, (10,11-Dihydro-5H-pyrrolo[2,1-c][1,4]benzodiazepin-10-yl)-[4-(6,6-dimethyl-bicyclo[3.1.1]hept-2-en-2-yl)-phenyl]-methanone], the inhibition at 0.1 µM was determined as 17%.

Still in this assay, the particulars now being: values in parentheses.
Usually IC50 stands for the point on the concentration scale where inhibition reaches its midpoint. Turning to `COc1cc(C2=CCCCC2)c(Cl)cc1C(=O)N1Cc2cccn2Cc2ccccc21` [Example 1, 10-(5-Chloro-4-cyclohex-1-en-1-yl-2-methoxybenzoyl)-10,11-dihydro-5H-pyrrolo[2,1-c][1,4]benzodiazepine], the IC50 turned out to be 176 nM.

Turning to `Cc1cc(C(=O)N2Cc3cccn3Cc3ccccc32)ccc1C1=CCCc2ccccc21` [Example 3, (10,11-Dihydro-5H-pyrrolo[2,1-c][1,4]benzodiazepin-10-yl)-[4-(3,4-dihydro-naphthalen-1-yl)-3-methyl-phenyl]-methanone], the IC50 turned out to be 66 nM.

`CC1=C(c2ccc(C(=O)N3Cc4cccn4Cc4ccccc43)cc2)CCCC1` [Example 7, (10,11-Dihydro-5H-pyrrolo[2,1-c][1,4]benzodiazepin-10-yl)-[4-(2-methyl-cyclohex-1-en-1-yl)-phenyl]-methanone]: the half-inhibitory concentration (IC50) is 162 nM.

Turning to `O=C(c1ccc(C2=CCCCC2)cc1)N1Cc2cccn2Cc2ccccc21` [Example 15, (10,11-Dihydro-5H-pyrrolo[2,1-c][1,4]benzodiazepin-10-yl)-(4-cyclohex-1-en-1-yl-phenyl)-methanone], the half-maximal inhibitory concentration (IC50) was 774 nM.

In the case of `CC1CCCC=C1c1ccc(C(=O)N2Cc3cccn3Cc3ccccc32)cc1` (stereo not drawn) [Example 16, (10,11-Dihydro-5H-pyrrolo[2,1-c][1,4]benzodiazepin-10-yl)-[4-(6-methyl-cyclohex-1-en-1-yl)-phenyl]-methanone], the concentration for half-maximal inhibition (IC50) stood at 295 nM.
